# Where two headings read alike, the source gives them in different places.
# Tests used:
# SNUC2B = assay: 2D combinational test (SRB growth inhibition, six days); type: cell-based, human
# Excerpt: (§1) OD values were normalized to control. […] Data shown are results of three independent experiments.
# H838 KRAS G12D = assay: as above; type: cell-based, human
# Excerpt: as §1
# SW1990 = assay: as above; type: cell-based, human; details: SW1990
# Excerpt: as §1
# PF906 = assay: as above; type: cell-based, human
# Excerpt: as §1
# HCT116 = assay: as above; type: cell-based, human
# Excerpt: as §1
# SW480 = assay: as above; type: cell-based, human
# Excerpt: as §1
# A549 = assay: as above; type: cell-based, human
# Excerpt: as §1
# SW1573 xenografts = assay: In vivo tumor growth of subcutaneous xenografts; design: species or system female SCID mice; details: AMG510 25 mg/kg i.p. and/or tipifarnib 40 mg/kg i.p.
# Protocol: (§2) H358 and SW1573 human lung adenocarcinoma cells (5×10^6 and 1×10^6, respectively) were subcutaneously injected in female SCID mice. Cells were injected in 200 μl DMEM:Matrigel mixture (ratio 1:1) based on preliminary experiments. When tumor reached approximately 100 mm^3 (H358 7 days, SW1573 26 days after injection), animals were randomized and treated intraperitoneally daily except for weekends. Drugs were dissolved in 60% DPBS, 34% PEG300, 5% DMSO and 1% Tween80. […] Controls received vehicle. Doses were determined based on previous literature, roughly using half of the used per os doses. The subcutaneous tumors were measured with a caliper and tumor volumes were calculated with the formula […] and expressed in mm^3. H358 experiment was terminated after 18 days and SW1573 after 25 days treatment. Tumors were measured upon harvest, then fixed with 4% PFA for histological analyses.
# (§3) Animals were the properties of the Department of Experimental Pharmacology, National Institute of Oncology, H-1122, Budapest, Hungary. All experiments were carried out in accordance with the Guidelines for Animal Experiments and were approved for the Department of Experimental Pharmacology in the National Institute of Oncology, Budapest, Hungary.
# H358 xenografts = assay: In vivo tumor growth of subcutaneous xenografts; design: species or system female SCID mice; details: AMG510 5 mg/kg i.p. and/or tipifarnib 40 mg/kg i.p.
# Protocol: as §2, §3
# cancer patients = details: cited from earlier work
# SW1573 spheroids = assay: 3D spheroid growth test; type: cell-based, human
# Protocol: Spheroids were generated using polyHEMA coated 96we11 round bottom plates. Briefly, the inner 60 wells of the plate were coated with 60 μl 5 mg/ml polyHEMA dissolved in 96% ethanol. Plates were dried at 60° C. in a plate shaker while shaking, then sterilized with UV. Cells were seeded at 3000 cells/well density at the inner 60 polyHEMA coated wells in 200 μl medium, while the outer wells were filled with DPBS (Lonza) to avoid evaporation. Plates were then centrifugated at 2000 RPM so that cells would be concentrated at the bottom of the well thus enhancing single spheroid formation. Within 24 hours the cells aggregated into spheroids and were treated by adding further 100 μl medium supplemented with the inhibitors. Each concentration group contained three spheroids. Each spheroid was pictured using a ToupCam XW 3MP microscope-camera on the first and sixth day of the treatment. Before imaging, medium was gently suspended so that unattached or dead cells would be removed from the surface of the spheroids. Images then were analysed using ImageJ software with a modified script of [1]. Briefly, the script measures the area of the 2D projections of the spheroids. Results were manually reviewed, then area values were used to calculate radius and volume of spheroids using the formula V=4/3×π×radius^3. Data are shown as results of three independent experiments.
# SW1573 [1] = assay: siRNA knockdown experiment (SRB, IC50); type: cell-based, human; details: 6-day-long treatment
# Protocol: Cells were plated in 2500 and 7500 cells/well density (for non-targeting siRNA and HRAS siRNA treatment, respectively) on a 48we11 plate supplemented with pre-mixed Lipofectamine RNAIMAX Reagent (Thermo Fisher) and OptiMEM (Thermo Fisher) containing 2.5 pmol/well non-targeting or HRAS siRNA according to the manufacturer's instruction (reverse transfection protocol). […] On the 3rd day of the treatment, cells were supplemented with fresh pre-mixed 2.5 pmol/well siRNA diluted in Lipofectamine RNAiMAX Reagent and Optimem according to the manufacturer's instruction. […] OD values were normalized to control, and IC50 values were calculated from transformed data using GraphPad PRISM 5 software.
# H358 = assay: 2D combinational test (SRB growth inhibition, six days)
# Protocol: (§4) H358, SW1573, H1792, MIAPACA2, SW1990, SNUC2B, SW480, A549 and HCT116 were purchased from ATCC, while SW48 KRAS G12C colorectal cell line and H838 KRAS G12D lung cell line was bought from Horizon Discovery Ltd. Most of the cell lines were heterozygous for mutant KRAS, as in human cases used to occur, but we also used cell lines with homozygous mutant KRAS.
# (§5) Cells were cultured in DMEM (Lonza, Switzerland; with 4500 mg/dm3 glucose, pyruvate and L-glutamine) supplemented with 10% fetal calf serum (EuroClone) and 1% penicillin-streptomycin-amphotericin (Lonza) in tissue culture flasks in a humidified 5% CO2 atmosphere at 37° C.
# (§6) For in vitro experiments drugs were dissolved in DMSO in 10 mM stock concentration and stored at −80° C.
# Cells that reached 70-80% confluency were trypsinized and counted using Luna II Automated Cell Counter. Cells were plated in 5000-10000 cells/well density (depending on the growth rate of the given cell line) on a 24 well plate. Next day the medium was replaced to fresh medium supplemented with the inhibitors. After 6 days, the wells were washed with DPBS (Lonza) and the cells were fixed by 10% trichloroacetic acid and stained with Sulphorodamine-B (SRB) (Sigma) dye for 15 minutes. […] Protein-bound SRB was then dissolved in 10 mM Tris buffer (pH=7,4) and OD was measured at 570 nm using a microplate reader (EL800, BioTec Instruments, Winooski, VT). […]
# SW1573 [2] = assay: as above; details: SW1573
# Protocol: as §4, §5, §6
# Cells that reached 70-80% confluency were trypsinized and counted using Luna II Automated Cell Counter. Cells were plated in 5000-10000 cells/well density (depending on the growth rate of the given cell line) on a 24 well plate. Next day the medium was replaced to fresh medium supplemented with the inhibitors. After 6 days, the wells were washed with DPBS (Lonza) and the cells were fixed by 10% trichloroacetic acid and stained with Sulphorodamine-B (SRB) (Sigma) dye for 15 minutes. Plates then were repeatedly washed with 1% acetic acid to remove excess dye. Protein-bound SRB was then dissolved in 10 mM Tris buffer (pH=7,4) and OD was measured at 570 nm using a microplate reader (EL800, BioTec Instruments, Winooski, VT). OD values were normalized to control. Transformed data then were used to calculate combinational index (CI) values using Compusyn software as described in https://www.combosyn.com/index.html. Data shown are results of three independent experiments.
# [3] = 0 nM tipifarnib + 25 nM MRTX1133
# [4] = 0 nM tipifarnib + 125 nM MRTX1133
# [5] = 0 nM tipifarnib + 625 nM MRTX1133
# [6] = (day 1 = 1), animal 1, in g (unit assumed)
# [7] = (day 1 = 1), animal 3, in g (unit assumed)
# [8] = (day 1 = 1), animal 4, in g (unit assumed)
# [9] = (day 1 = 1), animal 6, in g (unit assumed)
# [10] = (day 1 = 1), animal 7, in g (unit assumed)
# [11] = (day 1 = 1), group mean, in g (unit assumed)
# [12] = concentration range of 1-20 μM, data not shown
compound,measurement,setting,value
C#Cc1c(F)ccc2cc(O)cc(-c3ncc4c(N5CC6CCC(C5)N6)nc(OC[C@@]56CCCN5C[C@H](F)C6)nc4c3F)c12 [MRTX1133],Relative cell viability (MEAN),SNUC2B; 0 nM tipifarnib + 50 nM MRTX1133,0.739
same,Relative cell viability (MEAN),SNUC2B; 0 nM tipifarnib + 100 nM MRTX1133,0.7023
same,Relative cell viability (MEAN),SNUC2B; 0 nM tipifarnib + 500 nM MRTX1133,0.6567
same,Relative cell viability (MEAN),H838 KRAS G12D; [3],0.8997
same,Relative cell viability (MEAN),H838 KRAS G12D; [4],0.7955
same,Relative cell viability (MEAN),H838 KRAS G12D; [5],0.6909
same,Relative cell viability (MEAN),SW1990; 0 nM lonafarnib + 2.5 nM MRTX1133,0.848
same,Relative cell viability (MEAN),SW1990; 0 nM lonafarnib + 5 nM MRTX1133,0.7005
same,Relative cell viability (MEAN),SW1990; 0 nM lonafarnib + 10 nM MRTX1133,0.5543
same,Relative cell viability (MEAN),SW1990; 0 nM tipifarnib + 2.5 nM MRTX1133,0.7355
same,Relative cell viability (MEAN),SW1990; 0 nM tipifarnib + 5 nM MRTX1133,0.5922
same,Relative cell viability (MEAN),SW1990; 0 nM tipifarnib + 10 nM MRTX1133,0.4549
same,Relative cell viability (MEAN),PF906; [3],0.716
same,Relative cell viability (MEAN),PF906; [4],0.625
same,Relative cell viability (MEAN),PF906; [5],0.574
Cn1cnc(Cn2ccc3ccc(CNCc4[nH]c5ccccc5c4[C@H]4NC(=O)c5ccc(O)cc54)cc32)c1 [BI2852],Relative cell viability (MEAN),HCT116; 0 nM TIPIFARNIB + 10 μM BI2852,0.846
same,Relative cell viability (MEAN),HCT116; 0 nM TIPIFARNIB + 20 μM BI2852,0.7086
same,Relative cell viability (MEAN),HCT116; 0 nM TIPIFARNIB + 30 μM BI2852,0.5907
same,Relative cell viability (MEAN),SW480; 0 nM lonafarnib + 15 μM BI2852,0.8064
same,Relative cell viability (MEAN),SW480; 0 nM lonafarnib + 20 μM BI2852,0.6712
same,Relative cell viability (MEAN),SW480; 0 nM lonafarnib + 30 μM BI2852,0.3888
same,Relative cell viability (MEAN),SW480; 0 nM tipifarnib + 5 μM BI2852,0.9312
same,Relative cell viability (MEAN),SW480; 0 nM tipifarnib + 10 μM BI2852,0.7461
same,Relative cell viability (MEAN),SW480; 0 nM tipifarnib + 15 μM BI2852,0.5371
same,Relative cell viability (MEAN),A549; 0 nM TIPIFARNIB + 20 μM BI2852,0.9541
same,Relative cell viability (MEAN),A549; 0 nM TIPIFARNIB + 30 μM BI2852,0.8484
same,Relative cell viability (MEAN),A549; 0 nM TIPIFARNIB + 40 μM BI2852,0.7576
same,Relative cell viability (MEAN),SNUC2B; 0 nM tipifarnib + 10 μM BI2852,0.8372
same,Relative cell viability (MEAN),SNUC2B; 0 nM tipifarnib + 20 μM BI2852,0.7477
same,Relative cell viability (MEAN),SNUC2B; 0 nM tipifarnib + 30 μM BI2852,0.664
same,Relative cell viability (MEAN),SW1990; 0 nM tipifarnib + 10 μM BI2852,0.9287
same,Relative cell viability (MEAN),SW1990; 0 nM tipifarnib + 20 μM BI2852,0.8554
same,Relative cell viability (MEAN),SW1990; 0 nM tipifarnib + 30 μM BI2852,0.8187
sotorasib [AMG510],Weights of the tumors at the end of the experiment,SW1573 xenografts; [6],0.1025
same,Weights of the tumors at the end of the experiment,SW1573 xenografts; [7],0.7238
same,Weights of the tumors at the end of the experiment,SW1573 xenografts; [8],0.2227
same,Weights of the tumors at the end of the experiment,"SW1573 xenografts; (day 1 = 1), animal 5, in g (unit assumed)",0.144
same,Weights of the tumors at the end of the experiment,SW1573 xenografts; [9],0.5804
same,Weights of the tumors at the end of the experiment,SW1573 xenografts; [10],0.4184
same,"Weights of the tumors at the end of the experiment, MEAN",SW1573 xenografts; [11],0.3653
same,Inhibition of tumor growth (in words),SW1573 xenografts; daily except weekends,effectively inhibited tumors
same,Weights of the tumors at the end of the experiment,H358 xenografts; [6],0.053
same,Weights of the tumors at the end of the experiment,"H358 xenografts; (day 1 = 1), animal 2, in g (unit assumed)",0.559
same,Weights of the tumors at the end of the experiment,H358 xenografts; [7],0.038
same,Weights of the tumors at the end of the experiment,H358 xenografts; [8],0.157
same,Weights of the tumors at the end of the experiment,H358 xenografts; [9],0.254
same,Weights of the tumors at the end of the experiment,H358 xenografts; [10],0.029
same,"Weights of the tumors at the end of the experiment, MEAN",H358 xenografts; [11],0.1817
same,Inhibition of tumor growth (in words),H358 xenografts; daily except weekends,effectively inhibited tumors
same,Clinical efficacy in monotherapy,cancer patients; LUAD patients,good efficacy
same,Clinical efficacy in monotherapy,cancer patients; colorectal cancer patients,relatively less effective
same,Clinical toxicity,cancer patients; tested clinically,without rate limiting toxicities
same,Drug sensitivity in 3D compared to 2D settings,SW1573 spheroids,higher sensitivity
same,IC50,SW1573 [1]; Cont (non-targeting) siRNA,100 nM
same,IC50,SW1573 [1]; HRAS siRNA,51.7 nM
same,Sensitivity to treatment in 2D in vitro experiments,H358,highly sensitive
same,Sensitivity to treatment in 2D in vitro experiments,SW1573 [2],resistant
Cc1nc[nH]c1CN1CCN(C(=O)N[C@@H](CC(C)C)C(=O)O)[C@@H](Cc2ccccc2)C1=O [GGTI-2418],Effect on tumor cell proliferation (in words),H358; [12],ineffective
same,Effect on tumor cell proliferation (in words),SW1573 [2]; [12],ineffective
